In PMC5218480 (PLoS ONE, 2017):

Tested on: MV-4-11 cells
Experiment: Gene expression microarray analysis (Affymetrix PrimeView) and GSEA
Assay type: cell-based, human
Parameters: RFU PODN (11730768_x_at) / Fold change /veh PODN (11730768_x_at) / RFU LINC00158 (11744669_a_at) / Fold change /veh LINC00158 (11744669_a_at) / RFU DUSP10 (11751237_a_at) / Fold change /veh DUSP10 (11751237_a_at) / RFU ID3 (11757404_x_at) / Fold change /veh ID3 (11757404_x_at) / RFU PLEKHG5 (11737974_s_at) / Fold change /veh PLEKHG5 (11737974_s_at) / RFU LRRC4B (11730491_at) / Fold change /veh LRRC4B (11730491_at) / RFU GIMAP4 (11747438_a_at) / Fold change /veh GIMAP4 (11747438_a_at) / RFU KRT8 (11758183_x_at) / Fold change /veh KRT8 (11758183_x_at) / RFU CNN1 (11734310_a_at) / Fold change /veh CNN1 (11734310_a_at) / RFU VPS37D (11726825_at) / Fold change /veh VPS37D (11726825_at) / RFU C10orf10 (11716522_x_at) / Fold change /veh C10orf10 (11716522_x_at) / RFU KIR2DL2 /// KIR2DL4 /// KIR2DL5A /// KIR2DL5B /// KIR2DS1 /// KIR2DS2 /// KIR2DS3 /// KIR2DS4 /// KIR3DL3 /// KIR3DL3 /// KIR3DS1 (11738374_at) / Fold change /veh KIR2DL2 /// KIR2DL4 /// KIR2DL5A /// KIR2DL5B /// KIR2DS1 /// KIR2DS2 /// KIR2DS3 /// KIR2DS4 /// KIR3DL3 /// KIR3DL3 /// KIR3DS1 (11738374_at) / RFU C1QL1 (11718748_at) / Fold change /veh C1QL1 (11718748_at) / RFU TMPRSS4 (11747572_a_at) / Fold change /veh TMPRSS4 (11747572_a_at) / RFU HAMP (11756126_x_at) / Fold change /veh HAMP (11756126_x_at) / RFU RNFT2 (11725882_a_at) / Fold change /veh RNFT2 (11725882_a_at) / RFU NR4A2 (11747474_a_at) / Fold change /veh NR4A2 (11747474_a_at) / RFU ABCC12 (11746883_a_at) / Fold change /veh ABCC12 (11746883_a_at) / RFU TMEM136 (11760407_x_at) / Fold change /veh TMEM136 (11760407_x_at) / RFU CLDN22 /// WWC2 (11732394_at) / Fold change /veh CLDN22 /// WWC2 (11732394_at) / RFU HLA-DPB1 (11760878_x_at) / Fold change /veh HLA-DPB1 (11760878_x_at) / RFU SPINT1 (11716480_a_at) / Fold change /veh SPINT1 (11716480_a_at) / RFU GAP43 (11754022_s_at) / Fold change /veh GAP43 (11754022_s_at) / RFU A4GNT (11735810_at) / Fold change /veh A4GNT (11735810_at) / RFU PRB3 (11715151_x_at) / Fold change /veh PRB3 (11715151_x_at) / RFU TUBB4B (11761932_at) / Fold change /veh TUBB4B (11761932_at) / RFU CAPN14 (11732068_a_at) / Fold change /veh CAPN14 (11732068_a_at) / RFU TMCC2 (11721928_a_at) / Fold change /veh TMCC2 (11721928_a_at) / RFU IRGQ (11745062_a_at) / Fold change /veh IRGQ (11745062_a_at) / RFU FAM174B (11720279_a_at) / Fold change /veh FAM174B (11720279_a_at) / RFU TMPRSS4 (11748680_a_at) / Fold change /veh TMPRSS4 (11748680_a_at) / RFU FAM212B (11763350_a_at) / Fold change /veh FAM212B (11763350_a_at) / RFU PLEKHG5 (11743358_a_at) / Fold change /veh PLEKHG5 (11743358_a_at) / RFU ZSCAN30 (11745921_a_at) / Fold change /veh ZSCAN30 (11745921_a_at) / RFU CMKLR1 (11741424_a_at) / Fold change /veh CMKLR1 (11741424_a_at) / RFU LOC101060620 /// MAPK8IP1 (11723275_at) / Fold change /veh LOC101060620 /// MAPK8IP1 (11723275_at) / RFU SPTSSB (11747773_x_at) / Fold change /veh SPTSSB (11747773_x_at) / RFU PRSS12 (11739890_at) / Fold change /veh PRSS12 (11739890_at) / RFU BIN1 (11741810_x_at) / Fold change /veh BIN1 (11741810_x_at) / RFU WNT11 (11732464_a_at) / Fold change /veh WNT11 (11732464_a_at) / RFU C10orf10 (11716521_a_at) / Fold change /veh C10orf10 (11716521_a_at) / RFU C5orf56 (11738089_at) / Fold change /veh C5orf56 (11738089_at) / RFU CYB561 (11721691_x_at) / Fold change /veh CYB561 (11721691_x_at) / RFU ANKRD19P (11752326_a_at) / Fold change /veh ANKRD19P (11752326_a_at) / RFU OR2T12 /// OR2T33 /// OR2T8 (11738714_s_at) / Fold change /veh OR2T12 /// OR2T33 /// OR2T8 (11738714_s_at) / RFU VCAN (11748164_a_at) / Fold change /veh VCAN (11748164_a_at) / RFU JSRP1 (11732532_at) / Fold change /veh JSRP1 (11732532_at) / RFU KRTAP10-11 (11738290_x_at) / Fold change /veh KRTAP10-11 (11738290_x_at) / RFU MYO3A (11730013_a_at) / Fold change /veh MYO3A (11730013_a_at) / RFU EBF3 (11725865_a_at) / Fold change /veh EBF3 (11725865_a_at) / RFU CAMK2N1 (11719241_x_at) / Fold change /veh CAMK2N1 (11719241_x_at) / RFU C5orf56 (11738088_a_at) / Fold change /veh C5orf56 (11738088_a_at) / RFU OLFML3 (11715873_a_at) / Fold change /veh OLFML3 (11715873_a_at) / RFU LOC100653217 /// NTM (11731650_a_at) / Fold change /veh LOC100653217 /// NTM (11731650_a_at) / RFU MAPK11 (11762145_a_at) / Fold change /veh MAPK11 (11762145_a_at) / RFU FIZ1 (11724087_x_at) / Fold change /veh FIZ1 (11724087_x_at) / RFU OASL (11726364_x_at) / Fold change /veh OASL (11726364_x_at) / RFU SOX15 (11748057_x_at) / Fold change /veh SOX15 (11748057_x_at) / RFU CD79A (11719716_a_at) / Fold change /veh CD79A (11719716_a_at) / RFU HIST1H1D (11736915_at) / Fold change /veh HIST1H1D (11736915_at) / RFU CASKIN2 (11723855_a_at) / Fold change /veh CASKIN2 (11723855_a_at) / RFU LOC730098 (11760151_x_at) / Fold change /veh LOC730098 (11760151_x_at) / RFU OR4N2 (11742367_at) / Fold change /veh OR4N2 (11742367_at) / RFU PRRT2 (11749266_a_at) / Fold change /veh PRRT2 (11749266_a_at) / RFU SNX32 (11753110_a_at) / Fold change /veh SNX32 (11753110_a_at) / RFU CDHR5 (11726645_a_at) / Fold change /veh CDHR5 (11726645_a_at) / RFU RCAN1 (11760418_a_at) / Fold change /veh RCAN1 (11760418_a_at) / RFU FAM167A (11723789_a_at) / Fold change /veh FAM167A (11723789_a_at) / RFU FAM26E (11764081_at) / Fold change /veh FAM26E (11764081_at) / RFU ISYNA1 (11749810_s_at) / Fold change /veh ISYNA1 (11749810_s_at) / RFU ACY1 (11761880_at) / Fold change /veh ACY1 (11761880_at) / RFU 11764098_at / Fold change /veh 11764098_at / RFU SAMD14 (11745864_x_at) / Fold change /veh SAMD14 (11745864_x_at) / RFU NPB (11741838_a_at) / Fold change /veh NPB (11741838_a_at) / RFU TMPRSS6 (11731388_a_at) / Fold change /veh TMPRSS6 (11731388_a_at) / RFU KRTAP10-2 (11738614_at) / Fold change /veh KRTAP10-2 (11738614_at) / RFU ARHGAP8 /// PRR5-ARHGAP8 (11727945_x_at) / Fold change /veh ARHGAP8 /// PRR5-ARHGAP8 (11727945_x_at) / RFU KRTAP5-7 /// NADSYN1 (11734609_at) / Fold change /veh KRTAP5-7 /// NADSYN1 (11734609_at) / RFU RASL12 (11751679_a_at) / Fold change /veh RASL12 (11751679_a_at) / RFU CDKN2B (11736163_a_at) / Fold change /veh CDKN2B (11736163_a_at) / RFU PRF1 (11729649_at) / Fold change /veh PRF1 (11729649_at) / RFU, ZNF638 /// ZNF638-IT1 / Fold change vs veh, ZNF638 /// ZNF638-IT1 / RFU, PANK3 / Fold change vs veh, PANK3 / RFU, SH3YL1 / Fold change vs veh, SH3YL1 / RFU, ZEB2 / Fold change vs veh, ZEB2 / RFU, NRIP1 / Fold change vs veh, NRIP1 / RFU, PTTG1IP / Fold change vs veh, PTTG1IP / RFU, CAPN2 / Fold change vs veh, CAPN2 / RFU, MED14 / Fold change vs veh, MED14 / RFU, SNORA58 / Fold change vs veh, SNORA58 / RFU, C1orf63 / Fold change vs veh, C1orf63 / RFU, LRRFIP1 / Fold change vs veh, LRRFIP1 / RFU, NDUFAF7 / Fold change vs veh, NDUFAF7 / RFU, SLC12A2 / Fold change vs veh, SLC12A2 / RFU, IBTK / Fold change vs veh, IBTK / RFU, ESF1 / Fold change vs veh, ESF1 / Fold change vs veh, TMEM50B / RFU, TAOK1 / Fold change vs veh, TAOK1 / RFU, ACBD3 / Fold change vs veh, ACBD3 / RFU, TMA16 / Fold change vs veh, TMA16 / RFU, RWDD3 / Fold change vs veh, RWDD3 / RFU, BCAT1 / Fold change vs veh, BCAT1 / RFU, EDEM3 / Fold change vs veh, EDEM3 / RFU, TMEM33 / Fold change vs veh, TMEM33 / RFU, WDR75 / Fold change vs veh, WDR75 / RFU, AHCTF1 / Fold change vs veh, AHCTF1 / RFU, TFRC / Fold change vs veh, TFRC / RFU, ZDHHC17 / Fold change vs veh, ZDHHC17 / RFU, NOM1 / Fold change vs veh, NOM1 / RFU, ARL8B / Fold change vs veh, ARL8B / RFU, ZBTB11 / Fold change vs veh, ZBTB11 / RFU, TAMM41 / Fold change vs veh, TAMM41 / RFU, KIAA1704 /// LOC100996395 / Fold change vs veh, KIAA1704 /// LOC100996395 / RFU, ING1 / Fold change vs veh, ING1 / RFU, TRMT61B / Fold change vs veh, TRMT61B / RFU, FUBP3 / Fold change vs veh, FUBP3 / RFU, TP53 / Fold change vs veh, TP53 / RFU, TNKS2 / Fold change vs veh, TNKS2 / RFU, ZFP14 / Fold change vs veh, ZFP14 / RFU, ACTR2 / Fold change vs veh, ACTR2 / RFU, PPP3R1 / Fold change vs veh, PPP3R1 / RFU, PIK3R1 / Fold change vs veh, PIK3R1 / RFU, HNRNPA1 / Fold change vs veh, HNRNPA1 / RFU, RNF170 / Fold change vs veh, RNF170 / RFU, ZNF28 / Fold change vs veh, ZNF28 / RFU, RNGTT / Fold change vs veh, RNGTT / RFU, OGT / Fold change vs veh, OGT / RFU, BRD1 / Fold change vs veh, BRD1 / RFU, MARS / Fold change vs veh, MARS / RFU, ZNF655 / Fold change vs veh, ZNF655 / RFU, FAHD1 / Fold change vs veh, FAHD1 / RFU, BDP1 / Fold change vs veh, BDP1 / RFU, LRRCC1 / Fold change vs veh, LRRCC1 / RFU, ARID1A / Fold change vs veh, ARID1A / RFU, ZNF146 / Fold change vs veh, ZNF146 / RFU, ZNF330 / Fold change vs veh, ZNF330 / RFU, GPN3 / Fold change vs veh, GPN3 / RFU, C9orf123 / Fold change vs veh, C9orf123 / RFU, N4BP2L2 / Fold change vs veh, N4BP2L2 / RFU, ARFIP1 / Fold change vs veh, ARFIP1 / RFU, FAM179B / Fold change vs veh, FAM179B / RFU, BCL10 / Fold change vs veh, BCL10 / RFU, UHRF1BP1L / Fold change vs veh, UHRF1BP1L / RFU, BET1 / Fold change vs veh, BET1 / RFU, CNOT2 / Fold change vs veh, CNOT2 / RFU, ZNF268 / Fold change vs veh, ZNF268 / Fold change vs veh, ZNF507 / RFU, DGCR2 / Fold change vs veh, DGCR2 / RFU, WDSUB1 / Fold change vs veh, WDSUB1 / Fold change vs veh, HSP90B1 /// MIR3652 / RFU, ADSS / Fold change vs veh, ADSS / RFU, GK / Fold change vs veh, GK / RFU, ZNF148 / Fold change vs veh, ZNF148 / RFU, TAF9 / Fold change vs veh, TAF9 / RFU, SLC1A5 / Fold change vs veh, SLC1A5 / RFU, SLMO2 / Fold change vs veh, SLMO2 / RFU, ABCC4 / Fold change vs veh, ABCC4 / RFU, LOC101060439 /// RAP1B / Fold change vs veh, LOC101060439 /// RAP1B / RFU, RFX7 / Fold change vs veh, RFX7 / RFU, GTPBP10 / Fold change vs veh, GTPBP10 / RFU, CNEP1R1 / Fold change vs veh, CNEP1R1 / RFU, BIVM-ERCC5 /// ERCC5 / Fold change vs veh, BIVM-ERCC5 /// ERCC5 / RFU, ILF3 / Fold change vs veh, ILF3 / RFU 11762660_at / Fold change /veh 11762660_at / RFU VCAN (11757783_s_at) / Fold change /veh VCAN (11757783_s_at) / RFU DDX43 (11728927_at) / Fold change /veh DDX43 (11728927_at) / RFU KRT8 (11758188_x_at) / Fold change /veh KRT8 (11758188_x_at) / RFU NKD1 (11759106_at) / Fold change /veh NKD1 (11759106_at) / RFU SRD5A1 (11742802_a_at) / Fold change /veh SRD5A1 (11742802_a_at) / RFU TPSAB1 /// TPSB2 (11721975_s_at) / Fold change /veh TPSAB1 /// TPSB2 (11721975_s_at) / RFU GSTM3 (11746129_a_at) / Fold change /veh GSTM3 (11746129_a_at) / RFU IL23R (11737362_x_at) / Fold change /veh IL23R (11737362_x_at) / RFU TMEM51 (11727254_a_at) / Fold change /veh TMEM51 (11727254_a_at) / RFU PIWIL2 (11732686_x_at) / Fold change /veh PIWIL2 (11732686_x_at) / RFU ORM1 (11744905_x_at) / Fold change /veh ORM1 (11744905_x_at) / RFU CCDC152 (11743942_at) / Fold change /veh CCDC152 (11743942_at) / RFU ECM1 (11717891_a_at) / Fold change /veh ECM1 (11717891_a_at) / RFU IL23R (11748794_a_at) / Fold change /veh IL23R (11748794_a_at) / RFU TNFAIP8L3 (11732012_x_at) / Fold change /veh TNFAIP8L3 (11732012_x_at) / RFU MBOAT4 (11741988_at) / Fold change /veh MBOAT4 (11741988_at) / RFU 11764193_at / Fold change /veh 11764193_at / RFU TMEM53 (11763286_at) / Fold change /veh TMEM53 (11763286_at) / RFU MAGEB2 (11727129_at) / Fold change /veh MAGEB2 (11727129_at) / RFU TMEM200A (11744735_a_at) / Fold change /veh TMEM200A (11744735_a_at) / RFU CCDC152 (11751479_a_at) / Fold change /veh CCDC152 (11751479_a_at) / RFU FAM211A (11726209_a_at) / Fold change /veh FAM211A (11726209_a_at) / RFU RGS16 (11746705_a_at) / Fold change /veh RGS16 (11746705_a_at) / RFU VCAN (11755009_s_at) / Fold change /veh VCAN (11755009_s_at) / RFU RHOB (11743442_s_at) / Fold change /veh RHOB (11743442_s_at) / RFU RGS16 (11720943_a_at) / Fold change /veh RGS16 (11720943_a_at) / RFU RGS16 (11720944_at) / Fold change /veh RGS16 (11720944_at) / RFU, VPS4B / Fold change vs veh, VPS4B / RFU, CREB1 / Fold change vs veh, CREB1 / RFU, DNAJC13 / Fold change vs veh, DNAJC13 / RFU, GNAQ / Fold change vs veh, GNAQ / RFU, CDK5R1 / Fold change vs veh, CDK5R1 / RFU, ZRANB3 / Fold change vs veh, ZRANB3 / RFU, CUL4A / Fold change vs veh, CUL4A / RFU, CCNY / Fold change vs veh, CCNY / RFU, UFL1 / Fold change vs veh, UFL1 / RFU, COG3 / Fold change vs veh, COG3 / RFU, DIAPH2 / Fold change vs veh, DIAPH2 / RFU, SKA2 / Fold change vs veh, SKA2 / RFU, AFF3 / Fold change vs veh, AFF3 / RFU, LMF1 / Fold change vs veh, LMF1 / RFU, IPO11 / Fold change vs veh, IPO11 / RFU, DFFB / Fold change vs veh, DFFB / RFU, FOXP1 / Fold change vs veh, FOXP1 / RFU, CARD8 / Fold change vs veh, CARD8 / RFU, STRN3 / Fold change vs veh, STRN3 / RFU, ADK / Fold change vs veh, ADK / RFU, RASSF2 / Fold change vs veh, RASSF2 / RFU, WIPF1 / Fold change vs veh, WIPF1 / RFU, LARP1B / Fold change vs veh, LARP1B / RFU, RASA1 / Fold change vs veh, RASA1 / RFU, RB1 / Fold change vs veh, RB1 / RFU, PPFIA1 / Fold change vs veh, PPFIA1 / RFU, MAT2A / Fold change vs veh, MAT2A / RFU, CCT5 / Fold change vs veh, CCT5 / RFU, WDR92 / Fold change vs veh, WDR92 / RFU, CUX1 / Fold change vs veh, CUX1 / RFU, TTC7A / Fold change vs veh, TTC7A / RFU, TMEM135 / Fold change vs veh, TMEM135 / RFU, DEPTOR / Fold change vs veh, DEPTOR / RFU, CPM / Fold change vs veh, CPM / RFU, DNAJB6 / Fold change vs veh, DNAJB6 / RFU, CACNA2D3 / Fold change vs veh, CACNA2D3 / RFU, DTX4 / Fold change vs veh, DTX4 / RFU, TFCP2 / Fold change vs veh, TFCP2 / RFU, GMCL1 /// GMCL1P1 / Fold change vs veh, GMCL1 /// GMCL1P1 / RFU, AEBP2 / Fold change vs veh, AEBP2 / RFU, SNHG1 /// SNORD22 /// SNORD25 /// SNORD26 /// SNORD27 /// SNORD28 /// SNORD29 /// SNORD31 / Fold change vs veh, SNHG1 /// SNORD22 /// SNORD25 /// SNORD26 /// SNORD27 /// SNORD28 /// SNORD29 /// SNORD31 / Fold change (Aza/veh), C12orf56 (ProbeSet 11735607_a_at) / Fold change (ACY-1035/veh), C12orf56 (ProbeSet 11735607_a_at) / Fold change (Aza/veh), FGFR1OP (ProbeSet 11751329_s_at) / Fold change (ACY-1035/veh), FGFR1OP (ProbeSet 11751329_s_at) / Fold change (Aza/veh), VPS36 (ProbeSet 11739960_a_at) / Fold change (ACY-1035/veh), VPS36 (ProbeSet 11739960_a_at) / RFU SYPL1 (11715823_x_at) / Fold change /veh SYPL1 (11715823_x_at) / RFU IGFBP7 (11715501_s_at) / Fold change /veh IGFBP7 (11715501_s_at) / RFU REEP3 (11722064_at) / Fold change /veh REEP3 (11722064_at) / RFU IGLL1 (11728026_x_at) / Fold change /veh IGLL1 (11728026_x_at): dose or concentration left out as unconfirmed
Settings: ProbeSet 11731610_x_at; LIST B

With `Nc1ncn([C@@H]2O[C@H](CO)[C@@H](O)[C@H]2O)c(=O)n1` [azacitidine] the “Fold change vs veh, KIAA1704 /// LOC100996395” value was 1.05.
